This passage reports CC50, Ratio and EC50 results from ChEMBL document CHEMBL1132828, “Pharmacophore identification of a specific CXCR4 inhibitor, T140, leads to development of effective anti-HIV agents with very high selectivity indexes” (Bioorg Med Chem Lett, 2000).

Molecules are shown by their SMILES. Where a SMILES comes first, the peptide text is derived from it. Bridges are numbered along the chain shown (N, C = ends). [ ]: non-standard residue; d: D form. 2Nal = N[C@@H](Cc1ccc2ccccc2c1)C(=O)O; Cit = NC(=O)NCCC[C@H](N)C(=O)O Some results are limits rather than exact numbers.

Test [1] has as its system MT4. The test can be described thus: Compound was tested for reduction of the viability of mock infected MT-4 cell in test-II. The test is classed as functional. The settings on record: Homo sapiens.
Test [2] has as its system MT4. The experiment in a line: Compound was tested for reduction of the viability of mock infected MT-4 cell in test-I. The test is classed as functional. The settings on record: Homo sapiens.
The nature of test [3]: Ratio of cytotoxic concentration (CC50) in test-I to that of EC50 of compound. The test is classed as functional, Homo sapiens.
A short description of test [4]: Ratio of cytotoxic concentration (CC50) in test-II to that of EC50 of compound. The test is classed as functional, Homo sapiens.
A short description of test [5]: Ratio of cytotoxic concentration (CC50) in test-I to that of EC50 of compound; Not tested. The test is classed as functional.
For test [6], the system named is Human immunodeficiency virus 1. The experiment in a line: Inhibition of HIV-induced cytopathogenicity in MT-4 cell (ZIDOVUDINE control). The settings on record: Human immunodeficiency virus 1, MT4. The test is classed as functional, organism-based. A general note: Damage to the host cells serves as the signal in cytopathic effect assays.

As usually defined, the CC50 is the concentration that lowers cell viability or growth by half. A lower CC50 goes with harm at low concentration. For the compound `NCCCC[C@@H]1NC(=O)[C@H](CCCN=C(N)N)NC(=O)[C@H](Cc2ccc(O)cc2)NC(=O)[C@@H](NC(=O)[C@H](Cc2ccc3ccccc3c2)NC(=O)[C@H](CCCNC(N)=O)NC(=O)[C@@H](N)CCCN=C(N)N)CSSC[C@@H](C(=O)N[C@@H](CCCN=C(N)N)C(=O)O)NC(=O)[C@H](CCCNC(N)=O)NC(=O)[C@H](CCCN=C(N)N)NC(=O)[C@H](Cc2ccc(O)cc2)NC(=O)[C@@H]2CCCN2C(=O)[C@@H](CCCCN)NC1=O`, the CC50 with MT4 [1] was 260 µM; in the test on MT4 [2] it was greater than 80 µM. Further, the figures for the Ratio in test [3] and in test [4] were greater than 180 and 570, respectively.
As to `NCCCC[C@@H]1NC(=O)[C@H](CCCN=C(N)N)NC(=O)[C@H](Cc2ccc(O)cc2)NC(=O)[C@@H](NC(=O)[C@H](Cc2ccc3ccccc3c2)NC(=O)[C@H](CCCN=C(N)N)NC(=O)[C@@H](N)CCCN=C(N)N)CSSC[C@@H](C(=O)N[C@@H](CCCN=C(N)N)C(=O)O)NC(=O)[C@H](CCCNC(N)=O)NC(=O)[C@H](CCCNC(N)=O)NC(=O)[C@H](Cc2ccc(O)cc2)NC(=O)[C@@H]2CCCN2C(=O)[C@@H](CCCCN)NC1=O`, the values for the CC50 with MT4 [1] and in the test on MT4 [2] were 310 µM and greater than 80 µM, respectively. In addition, the values for the Ratio in test [3] and in test [4] were greater than 5300 and 20000, respectively.
As to `C[C@@H]1NC(=O)[C@H](Cc2ccc(O)cc2)NC(=O)[C@@H](NC(=O)[C@H](Cc2ccc3ccccc3c2)NC(=O)[C@H](CCCN=C(N)N)NC(=O)[C@@H](N)CCCN=C(N)N)CSSC[C@@H](C(=O)N[C@@H](CCCN=C(N)N)C(=O)O)NC(=O)[C@H](CCCNC(N)=O)NC(=O)[C@H](CCCN=C(N)N)NC(=O)[C@H](Cc2ccc(O)cc2)NC(=O)[C@@H]2CCCN2C(=O)[C@@H](CCCCN)NC(=O)[C@H](CCCCN)NC1=O`, the CC50 with MT4 [2] was greater than 40 µM. Besides, the Ratio in test [5] is given as greater than 4500.
Take `NCCCC[C@@H]1NC(=O)[C@H](CCCN=C(N)N)NC(=O)[C@H](Cc2ccc(O)cc2)NC(=O)[C@@H](NC(=O)[C@H](Cc2ccc3ccccc3c2)NC(=O)[C@H](CCCN=C(N)N)NC(=O)[C@@H](N)CCCN=C(N)N)CSSC[C@@H](C(=O)N[C@@H](CCCN=C(N)N)C(=O)O)NC(=O)[C@H](CCCNC(N)=O)NC(=O)[C@H](CCCN=C(N)N)NC(=O)[C@H](Cc2ccc(O)cc2)NC(=O)[C@@H]2CCCN2C(=O)[C@@H](CCCCN)NC1=O` (H-RR[2Nal]CYRK[dK]PYR[Cit]CR-OH; disulfide 4-13): the 50% cytotoxic concentration (CC50) with MT4 [1] is 96 µM; with MT4 [2], greater than 1 µM. Further, the Ratio in test [3] is reported as >>300; in test [4], 29000.
The EC50 is the concentration needed to bring the measured effect to its halfway point. A lower EC50 goes with a more potent agent. With `Cc1cn([C@H]2C[C@H](N=[N+]=[N-])[C@@H](CO)O2)c(=O)[nH]c1=O` [ZIDOVUDINE], a half-maximal effect in test [6] (EC50) was put at 0.048 µM. Moreover, the values for the CC50 in the test with MT4 [1] and in the test with MT4 [2] were less than 20 µM and 190 µM, respectively. The Ratio was 4000 in test [3] and less than 410 in test [4].
